This series has as its system Human Gamma Globulin (HGG), GLOBUCEL®. Kind of series: Viscosity of aqueous solutions of Human Gamma Globulin (Cambridge VISCOlab5000 or DV2T cone and plate viscometer).
[1] abbreviates: HGG […], excipient 5%, 25 mM citrate buffer pH 6.0.
Where [2] appears, read: HGG 220 mg/mL, excipient 10 mg/mL, citrate buffer pH 6.0, 25° C.
Setting [3] is: HGG 220 mg/mL, excipient 10 mg/mL, histidine buffer pH 6.0, 25° C.
Where [4] appears, read: HGG 220 mg/mL, excipient 10 mg/mL, phosphate buffer pH 6.0, 25° C.

Residues, ends and D or L forms follow the SMILES beside them.

Procedure: Commercially obtained human gamma globulin (HGG), GLOBUCEL® (50 mg/mL) containing pharmaceutical excipients (Maltose) was dialyzed against water for 24 hr at 4° C. with three changes. To the aqueous solution of HGG, either histidine or phosphate or citrate buffer was added from the stock concentration of 1000 mM for histidine buffer or 1000 mM for citrate buffer or 1000 mM for phosphate buffer, pH 6.0 to get a final concentration of 25 mM each. The HGG solutions in various buffers were concentrated to a final volume of less than 150 μL using Vivaspin centrifugal concentrators (Sartorius). The collected protein sample was stored at 4° C. […] The protein concentrations were experimentally determined using the extinction coefficient of 1.4
[formula] at 280 nm. The viscosities of the solution were measured either using a Cambridge Viscometer, VISCOlab5000 using 70 μL of sample at 25° C. or using a DV2T cone and plate viscometer using 1.5 mL of sample at 25° C. at extrapolated zero shear rate.
Commercially obtained human gamma globulin (HGG), GLOBUCEL® (50 mg/mL) containing pharmaceutical excipients (Maltose) was dialyzed against water for 24 hr at 4° C. with three changes. To the aqueous solution of HGG, either citrate-phosphate buffer pH 5.0 or citrate-phosphate buffer pH 6.0 or citrate-phosphate buffer pH 7.0 was added from the stock concentration of 1000 mM for citrate buffer at pH 5.0 or pH 6.0 or pH 7.0 to get a final concentration of 25 mM each. The HGG solutions in various pH buffers were concentrated to a final volume of less than 150 μL using Vivaspin centrifugal concentrators (Sartorius). The collected protein sample was stored at 4° C. […] The protein concentrations were experimentally determined using the extinction coefficient of 1.4
Commercially obtained human gamma globulin (HGG), GLOBUCEL® (50 mg/mL) containing pharmaceutical excipients (Maltose) was dialyzed against water for 24 hr at 4° C. with three changes. To the aqueous solution of HGG, phosphate/citrate/histidine Buffer was added from the stock concentration of 1000 mM phosphate/citrate/histidine buffer, pH 6.0 to get a final concentration of 25 mM. To the buffered HGG different amino acid or its derivative was added individually and mixed until complete dissolution. The excipient containing HGG was concentrated to a final volume of less than 150 μL using Vivaspin centrifugal concentrators (Sartorius). The collected protein sample was stored at 4° C. […] The protein concentrations were experimentally determined using the extinction coefficient of 1.4
Commercially obtained human gamma globulin (HGG), GLOBUCEL® (50 mg/mL) containing pharmaceutical excipients (Maltose) was dialyzed against water for 24 hr at 4° C. with three changes. To the aqueous solution of HGG, phosphate/citrate/histidine Buffer was added from the stock concentration of 1000 mM phosphate/citrate/histidine buffer, pH 6.0 to get a final concentration of 25 mM. To the buffered HGG, different nucleosides or nucleotides or its derivative was added individually and mixed until complete dissolution. The excipient containing HGG was concentrated to a final volume of less than 150 μL using Vivaspin centrifugal concentrators (Sartorius). The collected protein sample was stored at 4° C.

For `Nc1ncccn1` [2-Aminopyrimidine], the “Viscosity (cP) @ 25° C.” value (HGG 120 mg/mL, excipient 10 mg/mL (105 mM), 25 mM phosphate buffer pH 6.0) stood at 87 cP.

Take `CC(=O)Oc1ccccc1C(=O)O` [Acetyl salicylic acid, reference compound]: the “Viscosity (cP) @ 25° C.” value (HGG 283 mg/mL, excipient 2.5 mg/mL (14 mM), 25 mM histidine buffer pH 6.0) is given as 43 cP.

In the case of `C[C@H](N)C(=O)O` [Alanine], the “Viscosity (cP) @ 25° C.” value (HGG 222 mg/mL, excipient 10 mg/mL (112 mM), 25 mM phosphate buffer pH 6.0) amounted to 112 cP.

As for `Cl.N` [Ammonium chloride], the “Viscosity (cP) @ 25° C.” value is, setting by setting: (HGG 182 mg/mL, excipient 5.35 mg/mL (100 mM), 25 mM phosphate buffer pH 6.0) 53 cP; (HGG 205 mg/mL, excipient 40 mg/mL (747 mM), 25 mM phosphate buffer pH 6.0) 21 cP.

With `O=C[C@@H](O)[C@H](O)[C@H](O)CO` [Arabinose], the “Viscosity (cP) @ 25° C.” value (HGG 186 mg/mL, excipient 10 mg/mL (67 mM), 25 mM citrate buffer pH 6.0) was 65 cP.

As for `N=C(N)NCCC[C@H](N)C(=O)O` [Arginine], the “Viscosity (cP) @ 25° C.” value was 85 cP (HGG 205 mg/mL, excipient 10 mg/mL (58 mM), 25 mM phosphate buffer pH 6.0); 197 cP (HGG 220 mg/mL, excipient 10 mg/mL (58 mM), 25 mM phosphate buffer pH 6.0); 87 cP (HGG 247 mg/mL, excipient 10 mg/mL (58 mM), 25 mM citrate buffer pH 6.0).

`COC(=O)[C@H](Cc1ccccc1)NC(=O)[C@@H](N)CC(=O)O` [Aspartame] (H-Asp-Phe-OMe): the “Viscosity (cP) @ 25° C.” value is given as 51 cP (HGG 140 mg/mL, excipient 10 mg/mL (34 mM), 25 mM citrate buffer pH 6.0) and 143 cP (HGG 218 mg/mL, excipient 10 mg/mL (34 mM), 25 mM phosphate buffer pH 6.0).

Regarding `Nc1ccn([C@@H]2O[C@H](CO)[C@@H](O)[C@H]2O)c(=O)n1` [Cytidine], the “Viscosity (cP) @ 25° C.” value (HGG 218 mg/mL, excipient 10 mg/mL (41 mM), 25 mM phosphate buffer pH 6.0) stood at 203 cP.

For the compound `OC[C@@H](O)[C@@H](O)[C@H](O)[C@@H](O)CO` [D-sorbitol], the “Viscosity (cP) @ 25° C.” value (HGG 182 mg/mL, excipient 10 mg/mL (56 mM), 25 mM citrate buffer pH 6.0) was found to be 45 cP and the “Viscosity (cP) @ 25° C.” value (HGG 240 mg/mL, excipient 10 mg/mL (56 mM), 25 mM phosphate buffer pH 6.0) is reported as 176 cP.

Regarding `C[S+](C)[O-]` [DMSO], the “Viscosity (cP) @ 25° C.” value is, setting by setting: (HGG 204 mg/mL, excipient 5%, 25 mM phosphate buffer pH 6.0) 121 cP; under setting [1], 28 cP.

`CCO` [Ethanol]: the “Viscosity (cP) @ 25° C.” value (HGG 182 mg/mL, excipient 5%, 25 mM phosphate buffer pH 6.0) came to 53 cP and the “Viscosity (cP) @ 25° C.” value under setting [1] is reported as 5 cP.

Take `O=C(CO)[C@@H](O)[C@H](O)[C@H](O)CO` [Fructose]: under “HGG […], excipient 10 mg/mL (56 mM), 25 mM citrate buffer pH 6.0”, the “Viscosity (cP) @ 25° C.” value was found to be 69 cP.

`NCC(=O)O` [Glycine]: the “Viscosity (cP) @ 25° C.” value by setting is: (HGG 206 mg/mL, excipient 10 mg/mL ([…]), 25 mM phosphate buffer pH 6.0) 63 cP; (HGG 208 mg/mL, excipient 10 mg/mL ([…]), 25 mM citrate buffer pH 6.0) 73 cP; (HGG 228 mg/mL, excipient 10 mg/mL ([…]), 25 mM phosphate buffer pH 6.0) 186 cP.

On to `N[C@@H](Cc1c[nH]cn1)C(=O)O` [Histidine], for which the “Viscosity (cP) @ 25° C.” value (HGG 180 mg/mL, excipient 10 mg/mL (65 mM), 25 mM phosphate buffer pH 6.0) is 31 cP.

As to `N=C(N)NCCCC[C@H](N)C(=O)O` [Homoarginine], where the note is “HGG 188 mg/mL, excipient 10 mg/mL (45 mM), 25 mM phosphate buffer pH 6.0”, the “Viscosity (cP) @ 25° C.” value stood at 28 cP.

On to `O=C1O[C@H]([C@@H](O)CO)C(O)=C1O` [L-Ascorbic acid], for which, where the note is “HGG 214 mg/mL, excipient 10 mg/mL (57 mM), 25 mM phosphate buffer pH 6.0”, the “Viscosity (cP) @ 25° C.” value was 59 cP.

With `NCCCC[C@H](N)C(=O)O` [Lysine], where the note is “HGG 267 mg/mL, excipient 10 mg/mL (55 mM), 25 mM phosphate buffer pH 6.0”, the “Viscosity (cP) @ 25° C.” value is listed as 199 cP.

For `OC[C@@H](O)[C@@H](O)[C@H](O)[C@H](O)CO` [Mannitol], the “Viscosity (cP) @ 25° C.” value (HGG […], excipient 10 mg/mL (55 mM), 25 mM citrate buffer pH 6.0) turned out to be 65 cP.

As to `CSCC[C@H](N)C(=O)O` [Methionine], the “Viscosity (cP) @ 25° C.” value (HGG 228 mg/mL, excipient 10 mg/mL (67 mM), 25 mM phosphate buffer pH 6.0) was 170 cP.

As to `COC(=O)c1cccnc1` [Methylnicotinate], for the setting “HGG 216 mg/mL, excipient 10 mg/mL (73 mM), 25 mM phosphate buffer pH 6.0”, the “Viscosity (cP) @ 25° C.” value is given as 84 cP.

As for `NC(=O)c1cccnc1` [Nicotinamide], the “Viscosity (cP) @ 25° C.” value is, setting by setting: (HGG 105 mg/mL, excipient 10 mg/mL (82 mM), 25 mM histidine buffer pH 6.0) 26 cP; (HGG 191 mg/mL, excipient 10 mg/mL (82 mM), 25 mM phosphate buffer pH 6.0) 21 cP; (HGG 219 mg/mL, excipient 10 mg/mL (82 mM), 25 mM citrate buffer pH 6.0) 72 cP; (HGG 224 mg/mL, excipient 10 mg/mL (82 mM), 25 mM histidine buffer pH 6.0) 43 cP; (HGG 250 mg/mL, excipient 10 mg/mL (82 mM), 25 mM phosphate buffer pH 6.0) 76 cP. Moreover, the “Viscosity, cP” value runs as follows: under setting [2], 72 cP; under setting [3], 43 cP; under setting [4], 49 cP.

Take `O=C(O)c1cccnc1` [Nicotinic acid (acid form)]: the “Viscosity, cP” value under setting [2] was determined as 20 cP; the “Viscosity, cP” value under setting [3] stood at 18 cP; the “Viscosity, cP” value under setting [4] was found to be 20 cP; the “Viscosity, cP” value (HGG 260 mg/mL, nicotinic acid (acid form) 1 mg/mL, 25 mM histidine buffer pH 6.0, 25° C.) is on record as 85 cP; the “Viscosity, cP” value (HGG 260 mg/mL, nicotinic acid (acid form) 5 mg/mL, 25 mM histidine buffer pH 6.0, 25° C.) came to 68 cP; the “Viscosity, cP” value (HGG 260 mg/mL, nicotinic acid (acid form) 10 mg/mL, 25 mM histidine buffer pH 6.0, 25° C.) is 52 cP. The “Viscosity, cP” value worked out at 41 cP (HGG 260 mg/mL, nicotinic acid (acid form) 15 mg/mL, 25 mM histidine buffer pH 6.0, 25° C.); 63 cP (HGG 274 mg/mL, in the presence of nicotinic acid (acid form), 25 mM histidine buffer pH 6.0, 20° C.); 41 cP (HGG 274 mg/mL, in the presence of nicotinic acid (acid form), 25 mM histidine buffer pH 6.0, 25° C.); 35 cP (HGG 274 mg/mL, in the presence of nicotinic acid (acid form), 25 mM histidine buffer pH 6.0, 30° C.). In addition, the “Viscosity (cP) @ 25° C.” value reads like this: (HGG 231 mg/mL, excipient 10 mg/mL (81 mM), 25 mM histidine buffer pH 6.0) 23 cP; (HGG 246 mg/mL, excipient 10 mg/mL (81 mM), 25 mM citrate buffer pH 6.0) 48 cP; (HGG 250 mg/mL, excipient 10 mg/mL (81 mM), 25 mM phosphate buffer pH 6.0) 30 cP; (HGG 277 mg/mL, excipient 10 mg/mL (81 mM), 25 mM citrate buffer pH 6.0) 123 cP; (HGG 342 mg/mL, excipient 10 mg/mL (81 mM), 25 mM histidine buffer pH 6.0) 178 cP.

In the case of `O=C([O-])c1cccnc1.[Na+]` [Nicotinic acid Sodium Salt], the “Viscosity (cP) @ 25° C.” value was found to be 29 cP (HGG 202 mg/mL, excipient 10 mg/mL (69 mM), 25 mM phosphate buffer pH 6.0); 21 cP (HGG 203 mg/mL, excipient 10 mg/mL (69 mM), 25 mM histidine buffer pH 6.0); 95 cP (HGG 225 mg/mL, excipient 10 mg/mL (69 mM), 25 mM phosphate buffer pH 6.0); 140 cP (HGG 235 mg/mL, excipient 10 mg/mL (69 mM), 25 mM histidine buffer pH 6.0); 83 cP (HGG 236 mg/mL, excipient […] (81 mM), 25 mM histidine buffer pH 6.0); 71 cP (HGG […], excipient 10 mg/mL (69 mM), 25 mM citrate buffer pH 6.0). The “Viscosity, cP” value reads like this: under setting [3], 81 cP; under setting [4], 95 cP; (HGG 225 mg/mL (footnote), excipient 10 mg/mL, citrate buffer pH 6.0, 25° C.) 71^$ cP.

`CC(=O)[O-].[K+]` [Potassium acetate]: the “Viscosity (cP) @ 25° C.” value (HGG 228 mg/mL, excipient 40 mg/mL (408 mM), 25 mM phosphate buffer pH 6.0) was found to be 172 cP.

For `O=C(O)[C@@H]1CCCN1` [Proline], the “Viscosity (cP) @ 25° C.” value by setting is: (HGG […], excipient 10 mg/mL (87 mM), 25 mM citrate buffer pH 6.0) 55 cP; (HGG […], excipient 10 mg/mL (87 mM), 25 mM phosphate buffer pH 6.0) 68 cP.

On to `CC(=O)C(=O)[O-].[Na+]` [Pyruvate sodium salt], for which the “Viscosity (cP) @ 25° C.” value (HGG 213 mg/mL, excipient 10 mg/mL (91 mM), 25 mM phosphate buffer pH 6.0) is 171 cP.

Regarding `N[C@@H](CO)C(=O)O` [Serine], the “Viscosity (cP) @ 25° C.” value (HGG 238 mg/mL, excipient 10 mg/mL (95 mM), 25 mM phosphate buffer pH 6.0) stood at 135 cP.

Consider `CC(=O)[O-].[Na+]` [Sodium Acetate], for which the “Viscosity (cP) @ 25° C.” value (HGG 174 mg/mL, excipient […] (100 mM), 25 mM phosphate buffer pH 6.0) came to 19 cP.

Consider `OC[C@H]1O[C@@](CO)(O[C@H]2O[C@H](CO)[C@@H](O)[C@H](O)[C@H]2O)[C@@H](O)[C@@H]1O` [Sucrose], for which the “Viscosity (cP) @ 25° C.” value came out at 76 cP (HGG 192 mg/mL, excipient 20 mg/mL (58 mM), 25 mM citrate buffer pH 6.0) and 190 cP (HGG 204 mg/mL, excipient 20 mg/mL (58 mM), 25 mM phosphate buffer pH 6.0).
